System: LG0567-F671-PDC KRAS tumor spheroid viability
Experiment: Anticancer human tumor LG0567-F671-PDC patient-derived lung adenocarcinoma cell line growth inhibition [KRAS2]
Conditions: spheroids with HUVEC and MSC; for IC50: curve of first compound; for viability, T/C: stronger effect = lower value
How it was run: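 Combination screen of spheroid viability in tumor-cell co-cultures with endothelial (HUVEC) and mesenchymal stem cell stroma. Each agent was tested in half-log dilutions, topping at clinical Cmax or at 10 microM without a known Cmax.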

[1] = second compound 0.1 µM, first compound 0.000316 µM
[2] = second compound 0.1 µM, first compound 0.001 µM
[3] = second compound 0.1 µM, first compound 0.00316 µM
[4] = second compound 0.1 µM, first compound 0.01 µM
[5] = second compound 0.1 µM, first compound 0.0316 µM
[6] = second compound 0.1 µM, first compound 0.1 µM
[7] = second compound 0.316 µM, first compound 0.000316 µM
[8] = second compound 0.316 µM, first compound 0.001 µM
[9] = second compound 0.316 µM, first compound 0.00316 µM
[10] = second compound 0.316 µM, first compound 0.01 µM
[11] = second compound 0.316 µM, first compound 0.0316 µM
[12] = second compound 0.316 µM, first compound 0.1 µM
[13] = second compound 1 µM, first compound 0.000316 µM
[14] = second compound 1 µM, first compound 0.001 µM
[15] = second compound 1 µM, first compound 0.00316 µM
[16] = second compound 1 µM, first compound 0.01 µM
[17] = second compound 1 µM, first compound 0.0316 µM
[18] = second compound 1 µM, first compound 0.1 µM
[19] = second compound 3.16 µM, first compound 0.000316 µM
[20] = second compound 3.16 µM, first compound 0.001 µM
[21] = second compound 3.16 µM, first compound 0.00316 µM
[22] = second compound 3.16 µM, first compound 0.01 µM
[23] = second compound 3.16 µM, first compound 0.0316 µM
[24] = second compound 3.16 µM, first compound 0.1 µM
[25] = second compound 10 µM, first compound 0.000316 µM
[26] = second compound 10 µM, first compound 0.001 µM
[27] = second compound 10 µM, first compound 0.00316 µM
[28] = second compound 10 µM, first compound 0.01 µM
[29] = second compound 10 µM, first compound 0.0316 µM
[30] = second compound 10 µM, first compound 0.1 µM
[31] = second compound 0.1 µM, first compound 0.316 µM
[32] = second compound 0.1 µM, first compound 1 µM
[33] = second compound 0.1 µM, first compound 3.16 µM
[34] = second compound 0.1 µM, first compound 10 µM
[35] = second compound 0.316 µM, first compound 0.316 µM
[36] = second compound 0.316 µM, first compound 1 µM
[37] = second compound 0.316 µM, first compound 3.16 µM
[38] = second compound 0.316 µM, first compound 10 µM
[39] = second compound 1 µM, first compound 0.316 µM
[40] = second compound 1 µM, first compound 1 µM
[41] = second compound 1 µM, first compound 3.16 µM
[42] = second compound 1 µM, first compound 10 µM
[43] = second compound 3.16 µM, first compound 0.316 µM
[44] = second compound 3.16 µM, first compound 1 µM
[45] = second compound 3.16 µM, first compound 3.16 µM
[46] = second compound 3.16 µM, first compound 10 µM
[47] = second compound 10 µM, first compound 0.316 µM
[48] = second compound 10 µM, first compound 1 µM
[49] = second compound 10 µM, first compound 3.16 µM
[50] = second compound 10 µM, first compound 10 µM
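Also: drug exposure lasted seven days after spheroids formed for three days.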
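For viability, T/C in this document: 100% = DMSO vehicle control viability.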

SMILES | IC50 (second compound 0.1 µM) | IC50 (second compound 0.316 µM) | IC50 (second compound 1 µM) | IC50 (second compound 3.16 µM) | IC50 (second compound 10 µM) | viability, T/C [5] | viability, T/C [6] | viability, T/C [11] | viability, T/C [12] | viability, T/C [17] | viability, T/C [18] | viability, T/C [23] | viability, T/C [24] | viability, T/C [29] | viability, T/C [30] | viability, T/C [31] | viability, T/C [32] | viability, T/C [33] | viability, T/C [34] | viability, T/C [35] | also measured
CC(C)n1nc(-c2ccc3oc(N)nc3c2)c2c(N)ncnc21 + CC1OCC2(CCN(c3cnc(Sc4ccnc(N)c4Cl)c(N)n3)CC2)C1N | < 0.316 nM | < 0.316 nM | < 0.316 nM | < 0.316 nM | < 0.316 nM | 16.2% | 10.6% | 7.3% | 6.32% | 4.63% | 3.58% | 2.37% | 1.36% | 1.59% | 1.8% | – | – | – | – | – | viability, T/C [1]: 43.3%; viability, T/C [2]: 48.6%; viability, T/C [3]: 25.5%; viability, T/C [4]: 18%; viability, T/C [7]: 35.9%; viability, T/C [8]: 29%; viability, T/C [9]: 21%; viability, T/C [10]: 11.8%; viability, T/C [13]: 25.8%; viability, T/C [14]: 18.8%; viability, T/C [15]: 11.4%; viability, T/C [16]: 5.96%; viability, T/C [19]: 17.4%; viability, T/C [20]: 12%; viability, T/C [21]: 6.04%; viability, T/C [22]: 2.59%; viability, T/C [25]: 7.01%; viability, T/C [26]: 5.93%; viability, T/C [27]: 3.89%; viability, T/C [28]: 2.31%
CC1(C)CCC(CN2CCN(c3ccc(C(=O)NS(=O)(=O)c4ccc(NCC5CCOCC5)c([N+](=O)[O-])c4)c(Oc4cnc5[nH]ccc5c4)c3)CC2)=C(c2ccc(Cl)cc2)C1 + CC1OCC2(CCN(c3cnc(Sc4ccnc(N)c4Cl)c(N)n3)CC2)C1N | < 31.6 nM | < 31.6 nM | < 31.6 nM | < 31.6 nM | < 31.6 nM | 47% | 44.4% | 42.2% | 31.9% | 27.8% | 26.2% | 22.9% | 24% | 12.2% | 15.4% | 41.8% | 39.1% | 15.4% | 3.67% | 33.4% | viability, T/C [36]: 32.9%; viability, T/C [37]: 9.77%; viability, T/C [38]: 2.77%; viability, T/C [39]: 27%; viability, T/C [40]: 27.1%; viability, T/C [41]: 8.05%; viability, T/C [42]: 1.79%; viability, T/C [43]: 18.3%; viability, T/C [44]: 16.1%; viability, T/C [45]: 2.78%; viability, T/C [46]: 2.97%; viability, T/C [47]: 11.1%; viability, T/C [48]: 10.7%; viability, T/C [49]: 2.4%; viability, T/C [50]: 0.54%
COc1cc(Nc2ncc3c(n2)-c2ccc(Cl)cc2C(c2c(F)cccc2OC)=NC3)ccc1C(=O)O + CC1OCC2(CCN(c3cnc(Sc4ccnc(N)c4Cl)c(N)n3)CC2)C1N | 204 nM | < 31.6 nM | < 31.6 nM | < 31.6 nM | < 31.6 nM | 58.7% | 49.6% | 25.7% | 26% | 17.6% | 19.2% | 12.1% | 8.31% | 4.83% | 3.93% | 45.7% | 47.1% | 40.3% | 31.7% | 21.7% | viability, T/C [36]: 22.8%; viability, T/C [37]: 23.8%; viability, T/C [38]: 18.8%; viability, T/C [39]: 18.1%; viability, T/C [40]: 18.5%; viability, T/C [41]: 17.2%; viability, T/C [42]: 14.9%; viability, T/C [43]: 8.93%; viability, T/C [44]: 8.9%; viability, T/C [45]: 4.29%; viability, T/C [46]: 5.34%; viability, T/C [47]: 3.68%; viability, T/C [48]: 3.68%; viability, T/C [49]: 3.65%; viability, T/C [50]: 4.21%
COc1cc2nccc(Oc3ccc(NC(=O)C4(C(=O)Nc5ccc(F)cc5)CC4)cc3)c2cc1OC + CC1OCC2(CCN(c3cnc(Sc4ccnc(N)c4Cl)c(N)n3)CC2)C1N | < 31.6 nM | < 31.6 nM | < 31.6 nM | < 31.6 nM | < 31.6 nM | 54% | 50.4% | 33% | 30.9% | 25.7% | 22.8% | 19.6% | 15.2% | 13.1% | 9.16% | 33.3% | 31.5% | 30.3% | 88.4% | 26.6% | viability, T/C [36]: 20.9%; viability, T/C [37]: 13.3%; viability, T/C [38]: 69.7%; viability, T/C [39]: 18.4%; viability, T/C [40]: 13.8%; viability, T/C [41]: 9.19%; viability, T/C [42]: 43.3%; viability, T/C [43]: 8.47%; viability, T/C [44]: 6.57%; viability, T/C [45]: 6.28%; viability, T/C [46]: 25.8%; viability, T/C [47]: 8.96%; viability, T/C [48]: 6.33%; viability, T/C [49]: 3.72%; viability, T/C [50]: 23.3%
Cn1ncnc1[C@H]1c2n[nH]c(=O)c3cc(F)cc(c23)N[C@@H]1c1ccc(F)cc1 + CC1OCC2(CCN(c3cnc(Sc4ccnc(N)c4Cl)c(N)n3)CC2)C1N | < 0.316 nM | < 0.316 nM | < 0.316 nM | < 0.316 nM | < 0.316 nM | 57.3% | 54.9% | 32.8% | 35.2% | 22.5% | 23.3% | 12% | 13.8% | 8.87% | 7.89% | – | – | – | – | – | viability, T/C [1]: 48.9%; viability, T/C [2]: 53.1%; viability, T/C [3]: 52.4%; viability, T/C [4]: 56.4%; viability, T/C [7]: 47%; viability, T/C [8]: 34.5%; viability, T/C [9]: 29.1%; viability, T/C [10]: 36.4%; viability, T/C [13]: 29.4%; viability, T/C [14]: 25.9%; viability, T/C [15]: 21.9%; viability, T/C [16]: 18.9%; viability, T/C [19]: 24.4%; viability, T/C [20]: 19.1%; viability, T/C [21]: 19.1%; viability, T/C [22]: 15.3%; viability, T/C [25]: 11.2%; viability, T/C [26]: 12.2%; viability, T/C [27]: 15.7%; viability, T/C [28]: 9.32%

— PubChem BioAssay AID1963856 (Molecular Pharmacology Branch, DTP, NCI, 2024)
